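96-well plates; 48 h exposure; 5 concentrations. Endpoints by linear interpolation between flanking doses. Not reached: highest tested concentration assigned. GI50: concentration for 50% inhibition of growth.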 Active and inactive are the calls of the source. Rule as the data show it: active = GI50 up to about 1.1 µM and inactive = higher.
Legend:
Assay in all cases: NCI anticancer screen, dose series, 48 h
786-0 = tested on: 786-0
A549 = tested on: A549
HCT-116 = tested on: HCT-116
HL-60 = tested on: HL-60
HT-29 = tested on: HT-29
NCI-H460 = tested on: NCI-H460
OVCAR-5 = tested on: OVCAR-5
OVCAR-8 = tested on: OVCAR-8
RPMI-8226 = tested on: RPMI-8226
RXF 393 = tested on: RXF 393
SN12C = tested on: SN12C
TK-10 = tested on: TK-10
UACC-257 = tested on: UACC-257
CAKI-1 = tested on: CAKI-1

Measured: GI50

COc1ccc(C(=O)O)c(Br)c1OCc1ccccc1
inactive: 786-0 > 100 µM | A549 > 100 µM | HCT-116 > 100 µM | HL-60 > 100 µM | HT-29 > 100 µM | NCI-H460 > 100 µM | OVCAR-5 > 100 µM | OVCAR-8 > 100 µM | RPMI-8226 > 100 µM | RXF 393 > 100 µM | SN12C 92.5 µM | TK-10 > 100 µM

C/C(=N\N(C)C)C(CN(C)C)C(c1ccccc1)c1c(O)c2ccccc2oc1=O (stereo not drawn)
inactive: 786-0 > 100 µM | A549 > 100 µM | HCT-116 > 100 µM | HL-60 > 100 µM | HT-29 > 100 µM | NCI-H460 > 100 µM | OVCAR-5 > 100 µM | OVCAR-8 > 100 µM | RPMI-8226 > 100 µM | RXF 393 > 100 µM | SN12C > 100 µM | TK-10 > 100 µM | UACC-257 > 100 µM

O=C(Nc1cccc([N+](=O)[O-])c1)C(=O)C(C(=O)c1ccccc1-c1ccccc1)C1OC(=O)c2ccccc21 (stereo not drawn)
inactive: 786-0 18.7 µM | A549 26.9 µM | HCT-116 12.8 µM | HL-60 16.2 µM | HT-29 38.8 µM | NCI-H460 25.9 µM | OVCAR-5 22 µM | OVCAR-8 22.3 µM | RPMI-8226 13.4 µM | RXF 393 13.3 µM | TK-10 30.4 µM | UACC-257 20.1 µM

NC(=O)C1C(=O)Oc2cccnc21 (stereo not drawn)
inactive: 786-0 > 100 µM | A549 > 100 µM | HCT-116 > 100 µM | HT-29 > 100 µM | NCI-H460 86.7 µM | OVCAR-8 > 100 µM | RPMI-8226 > 100 µM | RXF 393 > 100 µM | SN12C > 100 µM | TK-10 > 100 µM | UACC-257 89.9 µM

CC(=O)NC(CCCN(Cc1ccccc1)C(=O)N(C)N=O)C(=O)NCc1ccccc1 (stereo not drawn)
inactive: 786-0 > 100 µM | A549 > 100 µM | CAKI-1 > 100 µM | HCT-116 > 100 µM | HT-29 > 100 µM | NCI-H460 > 100 µM | OVCAR-5 > 100 µM | OVCAR-8 > 100 µM | RPMI-8226 > 100 µM | RXF 393 > 100 µM | SN12C > 100 µM | TK-10 > 100 µM | UACC-257 > 100 µM

COc1cc2c(c3c1C=CCO3)C(=O)c1ccccc1C2=O
inactive: 786-0 57.7 µM | A549 38.5 µM | HCT-116 33.3 µM | HL-60 19.3 µM | HT-29 70.1 µM | NCI-H460 39.8 µM | OVCAR-5 > 100 µM | OVCAR-8 40.8 µM | RPMI-8226 32.8 µM | RXF 393 > 100 µM | SN12C 43.9 µM | TK-10 50.4 µM | UACC-257 25.3 µM

O/N=C(\C(=N/O)Nc1ccc(-c2ccc(NC(=N/O)/C(=N\O)c3ccccc3)cc2)cc1)c1ccccc1
inactive: 786-0 21.5 µM | A549 31.5 µM | CAKI-1 22.4 µM | HCT-116 18.7 µM | HL-60 27.9 µM | HT-29 13.6 µM | NCI-H460 17.3 µM | OVCAR-5 13.5 µM | OVCAR-8 21.4 µM | RPMI-8226 25.9 µM | SN12C 32.8 µM | TK-10 36.8 µM | UACC-257 29.9 µM

COC1CC(OS(=O)(=O)c2ccc(C)cc2)C(OS(=O)(=O)c2ccc(C)cc2)C(COS(=O)(=O)c2ccc(C)cc2)O1 (stereo not drawn)
inactive: 786-0 1.6 µM | A549 5.9 µM | CAKI-1 2.72 µM | HCT-116 14.5 µM | HL-60 30.1 µM | HT-29 3.31 µM | NCI-H460 4.3 µM | OVCAR-5 11.3 µM | OVCAR-8 1.82 µM | RPMI-8226 19.4 µM | RXF 393 1.71 µM | SN12C 3.96 µM | UACC-257 8.89 µM

Nc1ccc(C(=O)N/C(=C\C=C\c2ccco2)c2nc3c(O)nc(S)nc3[nH]2)cc1
inactive: 786-0 > 100 µM | A549 > 100 µM | CAKI-1 > 100 µM | HT-29 > 100 µM | OVCAR-5 > 100 µM | OVCAR-8 > 100 µM | RXF 393 > 100 µM | SN12C > 100 µM | TK-10 > 100 µM

COc1ccc2ccc([Se]c3ccc4ccc(OC)cc4c3)cc2c1
inactive: 786-0 49.7 µM | A549 > 100 µM | CAKI-1 38.7 µM | HCT-116 58.1 µM | HL-60 > 100 µM | HT-29 50.1 µM | NCI-H460 89.1 µM | OVCAR-8 21.8 µM | RPMI-8226 49.9 µM | RXF 393 70 µM | SN12C 90.6 µM | TK-10 > 100 µM | UACC-257 > 100 µM

CC#C[C@@]1(O)CCCCC1O (stereo partly drawn)
inactive: 786-0 > 100 µM | A549 > 100 µM | HCT-116 > 100 µM | HL-60 > 100 µM | HT-29 > 100 µM | NCI-H460 > 100 µM | OVCAR-8 > 100 µM | RPMI-8226 > 100 µM | RXF 393 > 100 µM | SN12C > 100 µM | TK-10 > 100 µM | UACC-257 > 100 µM

CC1=CC(/C=C(\C)CCCc2ccoc2)C2(OC(=O)C(C)=C2O)[C@H]2C1CC[C@@H]2C (stereo partly drawn)
inactive: 786-0 14.6 µM | A549 23.4 µM | CAKI-1 32.1 µM | HCT-116 15.6 µM | HT-29 34.3 µM | OVCAR-8 28.6 µM | RPMI-8226 13.3 µM | RXF 393 18.3 µM | SN12C 20.5 µM | TK-10 29.2 µM | UACC-257 29.5 µM

O=C1NC2OC(CO)C(O)C(O)C2O1 (stereo not drawn)
inactive: 786-0 > 100 µM | A549 > 100 µM | CAKI-1 > 100 µM | HCT-116 > 100 µM | HL-60 > 100 µM | HT-29 > 100 µM | NCI-H460 > 100 µM | OVCAR-5 > 100 µM | OVCAR-8 > 100 µM | SN12C > 100 µM | TK-10 > 100 µM | UACC-257 > 100 µM

Cc1ccc(C[P+]2(c3ccccc3)CCCCC2)cc1.[O-][Cl+3]([O-])([O-])[O-]
inactive: 786-0 47.4 µM | A549 73.5 µM | HCT-116 1.33 µM | HL-60 10.8 µM | HT-29 21.1 µM | NCI-H460 37.6 µM | OVCAR-5 55.2 µM | OVCAR-8 20.6 µM | RPMI-8226 7.43 µM | RXF 393 > 100 µM | SN12C 37.6 µM | TK-10 51.2 µM | UACC-257 6.28 µM

CCC(CO)Nc1nc2c(c(=O)n(C)c(=O)n2C)n1CCO (stereo not drawn)
inactive: 786-0 > 100 µM | A549 > 100 µM | HCT-116 > 100 µM | HT-29 > 100 µM | OVCAR-5 > 100 µM | OVCAR-8 > 100 µM | RPMI-8226 > 100 µM | RXF 393 > 100 µM | SN12C > 100 µM | TK-10 > 100 µM | UACC-257 > 100 µM

CC(C#N)c1cn(S(=O)(=O)c2ccccc2)c2ccccc12 (stereo not drawn)
inactive: 786-0 > 100 µM | A549 36.5 µM | CAKI-1 34.6 µM | HCT-116 40.1 µM | HL-60 26 µM | HT-29 > 100 µM | NCI-H460 61.7 µM | OVCAR-5 > 100 µM | OVCAR-8 80.7 µM | RPMI-8226 38.5 µM | TK-10 > 100 µM | UACC-257 31.3 µM

Source: ChEMBL document CHEMBL1201862, “PubChem BioAssay data set” (2004)
